The term inhibition denotes the drop in the measured response relative to a control, in per cent.

Consider 65 molecules from patent US12404268B2, “2-heteroaryl aminoquinazolinone derivative” (Sumitomo Pharma Co., Ltd., priority 2020, dated 2025).

Structures are written as SMILES.

The first experiment deals with neurons induced to differentiate from SCN1A gene deficient human iPS cells. Kind of experiment: Test for measuring hyperexcitation suppression activity (spontaneous calcium oscillation frequency). As to conditions: Homo sapiens, Neuron; @0.1 μM; read-out: inhibition rate. In kind it is cell-based. An excerpt:
Test for Measuring Hyperexcitation Suppression Activity Using Neurons Induced to Differentiate from SCN1A Gene Deficient Human iPS Cells
(1) Induction of Differentiation from Human iPS cells to Neurons
Half of the culture solution was exchanged once every 3 to 4 days.
(2) Fluorescent Calcium Probe Treatment, Addition of Compound, and Evaluation of Intracellular Calcium Concentration
Half of the culture solution was removed on day 60 from induction of differentiation or thereafter. A medium for measurement comprising a fluorescent calcium probe (Molecular Device, product name: FLIPR Calcium 6 Assay Bulk Kit, cat #R8191) was added at an amount equal to the remaining medium. The culture was left standing for 30 minutes and subjected to measurement.
The test compounds were serially diluted with a dimethyl sulfoxide (DMSO) solution so that the final concentration would be 0.1 to 100 μM to prepare a concentrate with a concentration that is 6-fold of the final concentration.
The intensity of fluorescence of a calcium probe was measured over time with FDSS7000EX (Hamamatsu Photonics) to evaluate the change in intracellular calcium concentrations. First, the intensity of fluorescence was measured for 2 minutes. The compound solutions were then added using FDSS7000EX for an additional 8 minute measurement of fluorescence intensity. The frequency of spontaneous calcium oscillation was quantified as an indicator of nerve excitation. With the frequency for 2 minutes before the addition of the compound solutions as 100%, the ratio of frequency for the last 2 minutes after addition of the compound solutions was calculated.
Take `O=c1c2cc(F)ccc2nc(Nc2cccnc2)n1-c1ccccc1F` [Example 108, 6-fluoro-3-(2-fluorophenyl)-2-(pyridin-3-ylamino)quinazolin-4(3H)-one]: the inhibition at 0.1 µM was determined as 62%.

As for `Cc1ccc(F)cc1-n1c(Nc2cccnc2)nc2ccc(C#N)cc2c1=O` [Example 104, 3-(5-fluoro-2-methylphenyl)-4-oxo-2-(pyridin-3-ylamino)-3,4-dihydroquinazoline-6-carbonitrile], the inhibition at 0.1 µM was 29%.

Still in this experiment, the particulars now being: Homo sapiens, Neuron; @1 μM; read-out: inhibition rate.
With `Cc1cnccc1Nc1nc2ccc(F)cc2c(=O)n1-c1ccccc1` [Example 132], the inhibition at 1 µM came out at 38%.

For `O=c1c2ccccc2nc(Nc2ccn3ccnc3c2)n1-c1ccccc1` [Example 70], the inhibition at 1 µM came to 58%.

For `O=c1c2cc(F)ccc2nc(Nc2cnccn2)n1-c1ccccc1` [Example 39, 6-fluoro-3-phenyl-2-(pyrazin-2-ylamino)quinazolin-4(3H)-one], the inhibition at 1 µM was 100%.

For the molecule `O=c1c2cc(F)ccc2nc(Nc2cccnc2)n1-c1ccsc1` [Example 161], the inhibition at 1 µM came to 35%.

`O=c1c2cc(F)ccc2nc(Nc2cccc(F)n2)n1-c1ccccc1` [Example 129]: the inhibition at 1 µM came out at 50%.

Consider `O=c1c2cc(F)ccc2nc(Nc2ccncc2F)n1-c1ccccc1` [Example 140], for which the inhibition at 1 µM was 46%.

With `O=c1c2cc(Cl)ccc2nc(Nc2cccnc2)n1-c1ccccc1` [Example 31, 6-chloro-3-phenyl-2-(pyridin-3-ylamino)quinazolin-4(3H)-one], the inhibition at 1 µM turned out to be 93%.

With `O=c1c2cc(F)ccc2nc(Nc2cncc(C(F)(F)F)c2)n1-c1ccccc1` [Example 48], the inhibition at 1 µM was 55%.

Regarding `O=c1c2cc(F)ccc2nc(Nc2cccnc2)n1-c1ccccc1Cl` [Example 145, 3-(2-chlorophenyl)-6-fluoro-2-(pyridin-3-ylamino)quinazolin-4(3H)-one], the inhibition at 1 µM was determined as 100%.

For the molecule `O=c1c2ccccc2nc(Nc2ccc3cnoc3c2)n1-c1ccccc1` [Example 94], the inhibition at 1 µM came out at 27%.

Consider `O=c1c2cc(F)ccc2nc(Nc2cccnc2)n1C1(c2ccccc2)COC1` [Example 168], for which the inhibition at 1 µM is 58%.

For the molecule `Cc1cccnc1Nc1nc2ccc(Cl)cc2c(=O)n1-c1ccccc1` [Example 26], the inhibition at 1 µM came out at 23%.

As for `O=c1c2ccccc2nc(Nc2cccnc2)n1C12CCN(CC1)CC2` [Example 119], the inhibition at 1 µM was determined as 20%.

Consider `O=c1c2ccccc2nc(Nc2ccc3ncoc3c2)n1-c1ccccc1` [Example 98], for which the inhibition at 1 µM was 51%.

For `O=c1c2cc(F)ccc2nc(Nc2cccnc2)n1-c1ccc(F)cc1` [Example 124], the inhibition at 1 µM came to 32%.

Consider `O=c1c2ccccc2nc(Nc2cccnc2)n1C1CCCCC1` [Example 57], for which the inhibition at 1 µM was 21%.

As for `CN(C)c1cccc(-n2c(Nc3cccnc3)nc3ccc(F)cc3c2=O)c1` [Example 181], the inhibition at 1 µM is 73%.

In the case of `Cc1ccc2nc(Nc3cccnc3)n(-c3ccccc3)c(=O)c2c1` [Example 42, 6-methyl-3-phenyl-2-(pyridin-3-ylamino)quinazolin-4(3H)-one], the inhibition at 1 µM worked out at 98%.

Take `Cc1ccc(-n2c(Nc3cccnc3)nc3ccc(C#N)cc3c2=O)c(Cl)c1` [Example 103]: the inhibition at 1 µM came to 84%.

The experiment is the same for the next values; noted with them: Homo sapiens, Neuron; @10 μM; read-out: inhibition rate.
`O=c1c2cccnc2nc(Nc2cccnc2)n1-c1ccccc1` [Example 152]: the inhibition at 10 µM was found to be 15%.

As for `Cn1cc(Nc2nc3ccc(Cl)cc3c(=O)n2-c2ccccc2)cn1` [Example 186], the inhibition at 10 µM turned out to be 100%.

In the case of `O=c1c2cc(F)ccc2nc(Nc2ccncc2)n1-c1ccccc1` [Example 131], the inhibition at 10 µM is 100%.

In the case of `CN1CCC[C@@H](n2c(Nc3cccnc3)nc3ccc(F)cc3c2=O)C1` [Example 100], the inhibition at 10 µM was determined as 100%.

On to `Cn1cnc2ccc(Nc3nc4ccccc4c(=O)n3-c3ccccc3)cc21` [Example 2, 2-((1-methyl-1H-benzo[d]imidazol-6-yl)amino)-3-phenylquinazolin-4(3H)-one], for which the inhibition at 10 µM was 57%.

Regarding `O=c1c2ccccc2nc(Nc2cccnc2)n1C1CCCC1` [Example 56], the inhibition at 10 µM came to 100%.

Take `O=c1c2cc(F)ccc2nc(Nc2ccsc2)n1-c1ccccc1` [Example 169]: the inhibition at 10 µM was found to be 100%.

On to `O=c1c2ccccc2nc(Nc2cccn3ccnc23)n1-c1ccccc1` [Example 66], for which the inhibition at 10 µM was 62%.

For `CN1CCC(n2c(Nc3cccnc3)nc3ccc(F)cc3c2=O)CC1` [Example 101], the inhibition at 10 µM worked out at 6%.

Regarding `COCc1nccc(Nc2nc3ccc(F)cc3c(=O)n2-c2ccccc2)n1` [Example 37], the inhibition at 10 µM came out at 68%.

In the case of `C[C@@H]1CN(C)CC[C@H]1n1c(Nc2cccnc2)nc2ccc(F)cc2c1=O` [Example 166], the inhibition at 10 µM amounted to 36%.

For `CCc1ccc(Nc2nc3ccc(Cl)cc3c(=O)n2-c2ccccc2)cn1` [Example 49], the inhibition at 10 µM was found to be 34%.

`O=c1c2cc(Cl)ccc2nc(Nc2ccncn2)n1-c1ccccc1` [Example 146]: the inhibition at 10 µM worked out at 11%.

As to `CN1CCC(n2c(Nc3cccnc3)nc3ccccc3c2=O)CC1` [Example 78], the inhibition at 10 µM came out at 100%.

For the molecule `O=c1c2cc(F)ccc2nc(Nc2cccnc2)n1Cc1ccccn1` [Example 157], the inhibition at 10 µM came out at 90%.

In the case of `CN1CCC[C@@H](n2c(Nc3cccnc3)nc3ccccc3c2=O)C1` [Example 75], the inhibition at 10 µM was 100%.

Turning to `O=c1c2cc(F)ccc2nc(Nc2cccnc2)n1C1CCCC1` [Example 60], the inhibition at 10 µM was determined as 100%.

As to `COc1ccc(-n2c(Nc3cccnc3)nc3ccc(C#N)cc3c2=O)c(C)c1` [Example 102, 3-(4-methoxy-2-methylphenyl)-4-oxo-2-(pyridin-3-ylamino)-3,4-dihydroquinazoline-6-carbonitrile], the inhibition at 10 µM worked out at 92%.

For the molecule `O=c1c2cc(Cl)ccc2nc(Nc2ccc(C(F)(F)F)cn2)n1-c1ccccc1` [Example 53], the inhibition at 10 µM amounted to 79%.

Regarding `N#Cc1ccc2nc(Nc3ccccn3)n(-c3ccccc3)c(=O)c2c1` [Example 88], the inhibition at 10 µM is 95%.

Still in this experiment, the particulars now being: Homo sapiens, Neuron; @100 μM; read-out: inhibition rate.
For `O=c1c2ccccc2nc(Nc2ccc3oncc3c2)n1-c1ccccc1` [Example 148], the inhibition at 100 µM is 10%.

As to `Cc1cc(Nc2nc3ccc(Cl)cc3c(=O)n2-c2ccccc2)ncn1` [Example 46], the inhibition at 100 µM came to 34%.

Staying with this experiment, now noted: Neuron; SCN1A gene deficient human iPS cell-derived neurons; FLIPR Calcium 6, FDSS7000EX; read-out: IC50 (50% inhibitory concentration, frequency of spontaneous calcium oscillation).
In the case of `O=c1c2cc(F)ncc2nc(Nc2cccnc2)n1CCc1ccccn1` [Example 197], the IC50 is above 10 µM.

As to `Cc1cccc2c(=O)n(-c3ccccc3)c(Nc3cccnc3)nc12` [Example 224], the IC50 is above 100 µM.

Consider `O=c1c2cc(Cl)ccc2nc(Nc2cncnc2)n1-c1ccccc1` [Example 6], for which the IC50 was 0.4 µM.

For `O=c1c2cc(F)ccc2nc(Nc2ccnnc2)n1-c1ccccc1` [Example 19], the IC50 came out at 2.2 µM.

As for `Cc1ccc2nc(Nc3cccnc3)n(-c3ccccc3)c(=O)c2n1` [Example 198], the IC50 is above 10 µM.

For the molecule `Cn1cnc(Nc2nc3ccccc3c(=O)n2-c2ccccc2)c1` [Example 231], the IC50 is above 10 µM.

In the case of `O=c1c2ncccc2nc(Nc2cccnc2)n1-c1ccccc1` [Example 191], the IC50 was above 10 µM.

`O=c1c2ccc(F)cc2nc(Nc2cccnc2)n1-c1ccccc1` [Example 222]: the IC50 is above 100 µM.

Turning to `O=c1c2cc(F)ccc2nc(Nc2cccnc2)n1C1(c2ccccc2)CCC1` [Example 205], the IC50 was above 10 µM.

As to `COc1ccnc(Nc2nc3ccc(F)cc3c(=O)n2-c2ccccc2)c1` [Example 187], the IC50 was above 10 µM.

For the molecule `Cc1cc2c(=O)n(-c3ccccc3)c(Nc3cccnc3)nc2cn1` [Example 194], the IC50 was above 10 µM.

As to `O=c1c2cc(F)ccc2nc(Nc2cccnc2)n1C1COC1` [Example 204], the IC50 was above 10 µM.

Take `COc1ccc2c(=O)n(-c3ccccc3)c(Nc3cccnc3)nc2c1` [Example 225]: the IC50 is above 100 µM.

Turning to `CO[C@H]1CC[C@H](n2c(Nc3cccnc3)nc3ccc(F)cc3c2=O)CC1` [Example 200], the IC50 was above 10 µM.

In the case of `NC(=O)c1ccc(Nc2nc3ccc(Cl)cc3c(=O)n2-c2ccccc2)nc1` [Example 221], the IC50 was above 10 µM.

Regarding `O=c1c2cc(F)ccc2nc(Nc2cccnc2)n1[C@H]1CCOC1` [Example 199], the IC50 is above 10 µM.

Regarding `Cc1cc2nc(Nc3cccnc3)n(-c3ccccc3)c(=O)c2cn1` [Example 193], the IC50 was above 10 µM.

As for `O=c1c2cc(Cl)ccc2nc(Nc2cccnn2)n1-c1ccccc1` [Example 9], the IC50 stood at 0.6 µM.

For the molecule `Cc1cccc2nc(Nc3cccnc3)n(-c3ccccc3)c(=O)c12` [Example 223], the IC50 was above 100 µM.

Consider `O=c1c2cccc(Cl)c2nc(Nc2cccnc2)n1-c1ccccc1` [Example 219], for which the IC50 is above 100 µM.

In the case of `CN(C)C(=O)c1ccc2nc(Nc3cccnc3)n(-c3ccccc3)c(=O)c2c1` [Example 213], the IC50 was above 100 µM.

Turning to `COc1cc(Nc2nc3ccc(F)cc3c(=O)n2-c2ccccc2)ccn1` [Example 227], the IC50 is above 100 µM.
